Patent US20260097022A1, “COMPOUNDS AND USES THEREOF” (Integrated Biosciences, Inc., priority 2023, published 2026)

What follows are compounds tested on etoposide-treated IMR-90 cells (assay: Etoposide-induced senescence model, resazurin cell viability (screen and dose-response)). Details: 10 μM, 3 days; active: control viability >0.5, Snc/control ratio <0.7.
Assay type: cell-based, human
Experimental: Cell culture. Human lung fibroblast (IMR-90) cells were obtained from ATCC (CCL-186) and passaged less than 10 times (less than 30 population doublings) for all experiments described in this example, with the exception of high-passage cells used in the model of replicative senescence (see the section on Replicative senescence below). Cells were cultured in growth media comprising Eagle's Minimum Essential Medium (EMEM: ATCC 30-2003) supplemented with 10% fetal bovine serum (FBS: Thermo Fisher 16140071) and 1% penicillin-streptomycin (Thermo Fisher 15070063). Cells were incubated in a humidity-controlled incubator at 37° C., with 5% CO2. Cells were detached using trypsin-EDTA (0.05%; Gibco 25300120).
Etoposide-induced senescence. IMR-90 cells were cultured as described above. At between 30 to 50% confluence, the media was replaced with complete growth media containing vehicle (0.5% dimethyl sulfoxide: DMSO, MilliporeSigma D5879) or complete growth media containing 50 μM etoposide (prepared as a 1:200 dilution of a 10 mM stock solution in DMSO; etoposide, MilliporeSigma E1383). Cells were treated for 2 days, after which the media was replaced with fresh growth media and cells were allowed to recover for 4 days. Cells were then plated as described below.
Chemical screening. For all screening experiments. 99 μL of cells were plated into each well of a 96-well clear flat-bottom, black polystyrene tissue-culture-treated plate (Corning 3904) at a density of ˜10+ cells/well. Plates were incubated overnight for adhesion. The day after plating. 1 μL of each compound, prepared as either a 1 mM stock solution in DMSO (10 μM final concentration screen) or 0.1 mM stock solution in DMSO (1 μM final concentration screen), was added to each well using an Agilent Bravo liquid handler. A built-in slow mixing step involving aspirating and dispensing was used to enhance distribution of the added compounds in solution. Cells were incubated for 3 days, after which resazurin (MilliporeSigma R^7017) was added to each well to a final concentration of 0.15 mM. After an additional 1 day of incubation, the fluorescence excitation/emission at 550/590 nm was read using a SpectraMaxR M3 plate reader and manufacturer software (SoftMax Pro R 6). Experiments were performed in biological duplicate.
Three-fold serial dilutions of compound were prepared in DMSO, then added to cell plates (final concentration of DMSO. 1%). Cell viability was then assayed as detailed above, and resazurin fluorescence values were linearly interpolated with respect to values from empty and positive control (non-treatment) wells. Experiments were performed in biological duplicate each on two independent occasions. When possible, chemical stocks from commercial suppliers were used: econazole nitrate (Cayman Chemical 20223), artenimol (Cayman Chemical 19846), and ABT-263 (Cayman Chemical 11500) were from Cayman Chemical, and dehydrodeguelin was aliquoted from the screening library.
Calculation of cellular viability values in dose-response curves. […] For each sample, the fluorescence intensity value was normalized by the mean of two untreated control values. Cellular viability values are therefore indicated as fractions of the cellular viability of untreated controls. Vehicle (1% DMSO) control values are included in each dose-response curve. Experiments were performed in biological duplicate each on two independent occasions.
Calculation of baseline cellular viability values. […] Additionally, baseline cellular viability values were calculated for untreated cells at the start of the experiment. Resazurin was added to a final concentration of 0.15 mM on the day of seeding (corresponding to day 0 in FIG. 7).

Row | Structure (SMILES) | senolytic activity in screen
1 | CN(C)CC#Cc1ccc(OCCCc2sc(N3CCc4cccc(C(=O)Nc5nc6ccccc6s5)c4C3)nc2C(=O)O)c(F)c1 [A-1155463, reference compound] | active

Same assay, conditions: etoposide-induced senescence model; ratio of IC50 values between etoposide- and DMSO-treated IMR-90 fibroblasts

Row | Structure (SMILES) | Therapeutic Index (TI)
2 | COC(=O)c1ccc(NC(=O)CSc2nc3ccc(NC(=O)c4ccccc4F)cc3s2)cc1 [compound 105] | ++ (compounds with a TI of 1 to 5 were labelled as ++)
3 | COc1ccc(C(=O)Nc2ccc3nc(SCC(=O)N4CCOCC4)sc3c2)cc1OC [compound 162] | + (Compounds with a TI of <1 were labelled as +)
4 | COc1cccc(NC(=O)CSc2nc3ccc(NC(=O)c4ccccc4)cc3s2)c1 [compound 153] | + (Compounds with a TI of <1 were labelled as +)
5 | Cc1ccccc1C(=O)Nc1ccc2nc(SCC(=O)NCCOc3ccccc3)sc2c1 [compound 93] | ++ (compounds with a TI of 1 to 5 were labelled as ++)
6 | Cc1cccc(NC(=O)CSc2nc3ccc(NC(=O)c4cccc(C)c4)cc3s2)c1 [compound 136] | ++ (compounds with a TI of 1 to 5 were labelled as ++)
7 | COC(=O)c1ccccc1NC(=O)CSc1nc2ccc(NC(=O)c3ccccc3C)cc2s1 [compound 67] | ++ (compounds with a TI of 1 to 5 were labelled as ++)
8 | Cc1ccc(C(=O)Nc2ccc3nc(SCC(=O)Nc4ccc(C(C)C)cc4)sc3c2)cc1 [compound 24] | +++ (compounds with a TI of >5 were labeled as +++)
9 | CCCCOc1ccc(C(=O)Nc2ccc3nc(SCC(=O)Nc4ccc(CC)cc4)sc3c2)cc1 [compound 124] | ++ (compounds with a TI of 1 to 5 were labelled as ++)
10 | COc1ccccc1C(=O)Nc1ccc2nc(SCC(=O)Nc3ccc(C)cc3C)sc2c1 [compound 168] | + (Compounds with a TI of <1 were labelled as +)
11 | CC(=O)Nc1ccc(NC(=O)CSc2nc3ccc(NC(=O)c4ccc(C)cc4)cc3s2)cc1 [compound 133] | ++ (compounds with a TI of 1 to 5 were labelled as ++)
12 | COc1ccccc1C(=O)Nc1ccc2nc(SCC(=O)N3CCc4ccccc43)sc2c1 [compound 30] | ++ (compounds with a TI of 1 to 5 were labelled as ++)
13 | Cc1cccc(NC(=O)CSc2nc3ccc(NC(=O)c4ccccc4F)cc3s2)c1C [compound 27] | +++ (compounds with a TI of >5 were labeled as +++)
14 | COc1ccc(C(=O)Nc2ccc3nc(SCC(=O)Nc4cc(Cl)ccc4C)sc3c2)cc1 [compound 113] | ++ (compounds with a TI of 1 to 5 were labelled as ++)
15 | O=C(CSc1nc2ccc(NC(=O)c3ccccc3F)cc2s1)NC1CC1 [compound 116] | ++ (compounds with a TI of 1 to 5 were labelled as ++)
16 | COc1ccc(NC(=O)CSc2nc3ccc(NC(=O)c4cccc(C)c4)cc3s2)cc1 [compound 55] | ++ (compounds with a TI of 1 to 5 were labelled as ++)
17 | CC(=O)c1ccc(NC(=O)CSc2nc3ccc(NC(=O)c4ccc(C)cc4)cc3s2)cc1 [compound 154] | + (Compounds with a TI of <1 were labelled as +)
18 | Cc1ccc(Cl)cc1NC(=O)CSc1nc2ccc(NC(=O)c3ccc(F)cc3)cc2s1 [compound 61] | ++ (compounds with a TI of 1 to 5 were labelled as ++)
19 | CCOc1ccc(C(=O)Nc2ccc3nc(SCC(=O)Nc4ccccc4C)sc3c2)cc1 [compound 35] | ++ (compounds with a TI of 1 to 5 were labelled as ++)
20 | CCc1cccc(CC)c1NC(=O)CSc1nc2ccc(NC(=O)c3ccccc3)cc2s1 [compound 97] | ++ (compounds with a TI of 1 to 5 were labelled as ++)

Row | Structure (SMILES) | Therapeutic Index (TI)
21 | CCCCOc1ccc(NC(=O)CSc2nc3ccc(NC(=O)c4ccc(Cl)cc4)cc3s2)cc1 [compound 77] | ++ (compounds with a TI of 1 to 5 were labelled as ++)
22 | COc1ccc(Cl)cc1NC(=O)CSc1nc2ccc(NC(=O)c3ccc(C)cc3)cc2s1 [compound 131] | ++ (compounds with a TI of 1 to 5 were labelled as ++)
23 | Cc1cccc(NC(=O)CSc2nc3ccc(NC(=O)c4cccc5ccccc45)cc3s2)c1C [compound 102] | ++ (compounds with a TI of 1 to 5 were labelled as ++)
24 | O=C(CSc1nc2ccc(NC(=O)c3ccccc3)cc2s1)Nc1cccc(C(F)(F)F)c1 [compound 68] | ++ (compounds with a TI of 1 to 5 were labelled as ++)
25 | COc1ccccc1C(=O)Nc1ccc2nc(SCC(=O)Nc3ccccc3Cl)sc2c1 [compound 170] | + (Compounds with a TI of <1 were labelled as +)
26 | CCCCOc1ccc(NC(=O)CSc2nc3ccc(NC(=O)c4cccc(C)c4)cc3s2)cc1 [compound 126] | ++ (compounds with a TI of 1 to 5 were labelled as ++)
27 | CCOc1ccc(NC(=O)CSc2nc3ccc(NC(=O)c4ccccc4Cl)cc3s2)cc1 [compound 22] | +++ (compounds with a TI of >5 were labeled as +++)
28 | CCc1cccc(CC)c1NC(=O)CSc1nc2ccc(NC(=O)c3ccccc3C)cc2s1 [compound 69] | ++ (compounds with a TI of 1 to 5 were labelled as ++)
29 | Cc1ccccc1C(=O)Nc1ccc2nc(SCC(=O)Nc3ccccc3Cl)sc2c1 [compound 110] | ++ (compounds with a TI of 1 to 5 were labelled as ++)
30 | Cc1ccccc1C(=O)Nc1ccc2nc(SCC(=O)N(C)c3ccccc3)sc2c1 [compound 125] | ++ (compounds with a TI of 1 to 5 were labelled as ++)
31 | COc1ccccc1C(=O)Nc1ccc2nc(SCC(=O)Nc3cc(C)cc(C)c3)sc2c1 [compound 147] | + (Compounds with a TI of <1 were labelled as +)
32 | O=C(CSc1nc2ccc(NC(=O)c3ccccc3Cl)cc2s1)Nc1ccccc1F [compound 42] | ++ (compounds with a TI of 1 to 5 were labelled as ++)
33 | COc1ccc(NC(=O)CSc2nc3ccc(NC(=O)c4ccc(Cl)cc4)cc3s2)cc1 [compound 111] | ++ (compounds with a TI of 1 to 5 were labelled as ++)
34 | COc1ccccc1C(=O)Nc1ccc2nc(SCC(=O)Nc3cc(Cl)ccc3C)sc2c1 [compound 160] | + (Compounds with a TI of <1 were labelled as +)
35 | CCCCOc1ccc(NC(=O)CSc2nc3ccc(NC(=O)c4ccc(Cl)cc4Cl)cc3s2)cc1 [compound 129] | ++ (compounds with a TI of 1 to 5 were labelled as ++)
36 | COc1ccccc1C(=O)Nc1ccc2nc(SCC(=O)Nc3ccc(C(C)=O)cc3)sc2c1 [compound 21] | +++ (compounds with a TI of >5 were labeled as +++)
37 | COc1ccccc1C(=O)Nc1ccc2nc(SCC(=O)Nc3ccccc3)sc2c1 [compound 104] | ++ (compounds with a TI of 1 to 5 were labelled as ++)
38 | CCCCOc1ccc(NC(=O)CSc2nc3ccc(NC(=O)c4ccccc4Cl)cc3s2)cc1 [compound 148] | + (Compounds with a TI of <1 were labelled as +)
39 | COc1ccc(NC(=O)CSc2nc3ccc(NC(=O)c4ccccc4F)cc3s2)cc1 [compound 3] | +++ (compounds with a TI of >5 were labeled as +++)
